What was measured:
[1] = biological target: NV 3CLpro (Norwalk virus, UniProt Q83883); assay: FRET protease assay, NV 3CLpro; format: biochemical; conditions: for Activity against NV 3CLpro and in cell based assays (in words): summary of Table 1; for Fold less active than compounds 13/25: n-pentyl chain versus m-chlorophenyl
[2] = test system: HG23 cells; assay: Nonspecific cytotoxic effects in HG23 cells; format: cell-based; conditions: cytotoxic dose for 50% cell death (CC50), 1 to 100 μM, 48 h, CytoTox 96 kit and crystal violet staining, average of at least two determinations

NV 3CLpro, sequence (Q83883 1101-1281): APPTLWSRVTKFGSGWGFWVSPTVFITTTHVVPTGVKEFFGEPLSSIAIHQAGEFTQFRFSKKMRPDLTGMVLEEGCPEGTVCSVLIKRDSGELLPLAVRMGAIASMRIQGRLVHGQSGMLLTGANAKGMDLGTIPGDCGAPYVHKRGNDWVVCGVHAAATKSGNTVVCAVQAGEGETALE

| Structure (SMILES) | TC50 (EC50) [2] | other results |
| --- | --- | --- |
| O=C1CC[C@@H](C(O)S(=O)(=O)[O-])NC(=O)C2(CCCCC2)NC(=O)OC(c2cccc(Cl)c2)CCCCCCN1.[Na+] (stereo partly drawn) [Compound 27, Sodium ((21S)-10-(3-chlorophenyl)-8,18,23-trioxo-9-oxa-7,17,22-triazaspiro[5.17]tricosan-21-yl) (hydroxy) methanesulfonate] | 46.6 µM | Activity against NV 3CLpro and in cell based assays (in words) [1]: inactive |
| CC(C)C[C@@H]1NC(=O)OC(c2cccc(Cl)c2)CCCCCONC(=O)CC[C@@H](C=O)NC1=O (single isomer, unassigned) [Compound 36B] | 73.8 µM |  |
| CC(C)C[C@@H]1NC(=O)OC(CCCc2ccccc2)CCCCCNC(=O)CC[C@@H](C=O)NC1=O (stereo partly drawn) [Compound 20, (4S, 7S)-4-Isobutyl-2,5,10-trioxo-17-(3-phenylpropyl)-1-oxa-3,6,11-triazacycloheptadecane-7-carbaldehyde] | 71.5 µM |  |
| CC(C)C[C@@H]1NC(=O)OC(Cc2ccccc2)CCCCCNC(=O)CC[C@@H](C=O)NC1=O (stereo partly drawn) [Compound 12, (4S, 7S)-17-Benzyl-4-isobutyl-2,5,10-trioxo-1-oxa-3,6,11-triazacycloheptadecane-7-carbaldehyde] | >100 µM |  |
| CC(C)C[C@@H]1NC(=O)OC(c2cccc(Cl)c2)CCCCCNC(=O)CC[C@@H](C(O)S(=O)(=O)[O-])NC1=O.[Na+] (stereo partly drawn) [Compound 25, Sodium ((4S, 7S)-17-(3-chlorophenyl)-4-isobutyl-2,5,10-trioxo-1-oxa-3,6,11-triazacycloheptadecan-7-yl) (hydroxy) methanesulfonate] | >100 µM |  |
| O=C[C@@H]1CCC(=O)NCCCCCC(c2cccc(Cl)c2)OC(=O)N[C@@H](CC2CCCCC2)C(=O)N1 (stereo partly drawn) [14(minor), (4S, 7S)-17-(3-Chlorophenyl)-4-(cyclohexylmethyl)-2,5,10-trioxo-1-oxa-3,6,11-triazacycloheptadecane-7-carbaldehyde] | 45.3 µM |  |
| CC(C)C[C@@H]1NC(=O)OC(c2cccc(Cl)c2)CCCCCNC(=O)CC[C@@H](C=O)NC1=O (stereo partly drawn) [Compound 13, (4S, 7S)-17-(3-Chlorophenyl)-4-isobutyl-2,5,10-trioxo-1-oxa-3,6,11-triazacycloheptadecane-7-carbaldehyde] | >100 µM |  |
| O=C[C@@H]1CCC(=O)NCCCCCC(c2cccc(Cl)c2)OC(=O)N[C@@H](CC2CCCCC2)C(=O)N1 (stereo partly drawn) [14(major), (4S, 7S)-17-(3-Chlorophenyl)-4-(cyclohexylmethyl)-2,5,10-trioxo-1-oxa-3,6,11-triazacycloheptadecane-7-carbaldehyde] | 62.4 µM |  |
| O=C[C@@H]1CCC(=O)NCCCCCC(c2cccc(Cl)c2)OC(=O)NC2(CCCCC2)C(=O)N1 (stereo partly drawn) [Compound 18, (20S)-10-(3-Chlorophenyl)-8,17,22-trioxo-9-oxa-7,16,21-triazaspiro[5.16]docosane-20-carbaldehyde] | 62.4 µM | Activity against NV 3CLpro and in cell based assays (in words) [1]: inactive |
| CC(C)C[C@@H]1NC(=O)OC(c2cccc(Cl)c2)CCCCCCNC(=O)CC[C@@H](C=O)NC1=O (stereo partly drawn) [Compound 15, (4S, 7S)-18-(3-Chlorophenyl)-4-isobutyl-2,5,10-trioxo-1-oxa-3,6,11-triazacyclooctadecane-7-carbaldehyde] | 67.4 µM |  |
| CCCCCC1CCCCCNC(=O)CC[C@@H](C=O)NC(=O)[C@H](CC(C)C)NC(=O)O1 (stereo partly drawn) [Compound 21, (4S, 7S)-4-Isobutyl-2,5,10-trioxo-17-pentyl-1-oxa-3,6,11-triazacycloheptadecane-7-carbaldehyde] | 72.7 µM | Fold less active than compounds 13/25 ([1]; Table 1): ~ 2 fold |
| CC(C)C[C@@H]1NC(=O)OC(Cc2ccccc2)CC/C=C/CNC(=O)CC[C@@H](C=O)NC1=O (stereo partly drawn) [Compound 23, (4S, 7S, E)-17-Benzyl-4-isobutyl-2,5,10-trioxo-1-oxa-3,6,11-triazacycloheptadec-13-ene-7-carbaldehyde] | >100 µM | Fold more potent than compound 12 ([1]; unsaturated linker versus saturated linker, Table 1): ~ 2 fold |
| CC(C)C[C@@H]1NC(=O)OC(c2cccc(Cl)c2)CCCCCONC(=O)CC[C@@H](C=O)NC1=O (single isomer, unassigned) [Compound 36A] | 68.3 µM |  |
| O=C1CC[C@@H](C(O)S(=O)(=O)[O-])NC(=O)C2(CCCCC2)NC(=O)OC(c2cccc(Cl)c2)CCCCCN1.[Na+] (stereo partly drawn) [Compound 26, Sodium ((20S)-10-(3-chlorophenyl)-8,17,22-trioxo-9-oxa-7,16,21-triazaspiro [5.16]docosan-20-yl) (hydroxy) methanesulfonate] | 48.5 µM | Activity against NV 3CLpro and in cell based assays (in words) [1]: inactive |
| C[C@@H]1NC(=O)OC(c2cccc(Cl)c2)CCCCCCNC(=O)CC[C@@H](C=O)NC1=O (stereo partly drawn) [Compound 17, (4S, 7S)-18-(3-Chlorophenyl)-4-methyl-2,5,10-trioxo-1-oxa-3,6,11-triazacyclooctadecane-7-carbaldehyde] | >100 µM |  |
| O=C[C@@H]1CCC(=O)NCCCCCCC(c2cccc(Cl)c2)OC(=O)NC2(CCCCC2)C(=O)N1 (stereo partly drawn) [Compound 19, (21S)-10-(3-Chlorophenyl)-8,18,23-trioxo-9-oxa-7,17,22-triazaspiro [5.17] tricosane-21-carbaldehyde] | 53.3 µM | Activity against NV 3CLpro and in cell based assays (in words) [1]: inactive |
| O=C[C@@H]1CCC(=O)NC/C=C/CCC(c2cccc(Cl)c2)OC(=O)N[C@@H](CC2CCCCC2)C(=O)N1 (stereo partly drawn) [Compound 24, (4S, 7S, E)-17-(3-Chlorophenyl)-4-(cyclohexylmethyl)-2,5,10-trioxo-1-oxa-3,6,11-triazacycloheptadec-13-ene-7-carbaldehyde] | 42.3 µM |  |
| CC(C)C[C@@H]1NC(=O)OC(CCCc2ccccc2)CCCCCNC(=O)CC[C@@H](C(O)S(=O)(=O)[O-])NC1=O.[Na+] (stereo partly drawn) [Compound 28, Sodium hydroxyl ((4S, 7S)-4-isobutyl-2,5,10-trioxo-17-(3-phenylpropyl)-1-oxa-3,6,11-triazacycloheptadecan-7-yl) methanesulfonate] | 69.2 µM |  |
| CC(C)C[C@@H]1NC(=O)OC(c2ccccc2)CCCCCNC(=O)CC[C@@H](C=O)NC1=O (stereo partly drawn) [Compound 11, (4S, 7S)-4-Isobutyl-2,5,10-trioxo-17-phenyl-1-oxa-3,6,11-triazacycloheptadecane-7-carbaldehyde] | >100 µM |  |
| CCCCCC1CCCCCNC(=O)CC[C@@H](C(O)S(=O)(=O)[O-])NC(=O)[C@H](CC(C)C)NC(=O)O1.[Na+] (stereo partly drawn) [Compound 29, Sodium hydroxyl ((4S, 7S)-4-isobutyl-2,5,10-trioxo-17-pentyl-1-oxa-3,6,11-triazacycloheptadecan-7-yl) methanesulfonate] | 78.5 µM | Fold less active than compounds 13/25 ([1]; Table 1): ~ 2 fold |
| CC(C)C[C@@H]1NC(=O)OC(c2cccc(Cl)c2)CCCCCNC(=O)CC[C@@H](C(=O)C(=O)NC2CC2)NC1=O (stereo partly drawn) [Compound 31, 2-((4S, 7S)-17-(3-Chlorophenyl)-4-isobutyl-2,5,10-trioxo-1-oxa-3,6,11-triazacycloheptadecan-7-yl)-N-cyclopropyl-2-oxoacetamide] | 53.1 µM |  |
| C[C@@H]1NC(=O)OC(c2cccc(Cl)c2)CCCCCNC(=O)CC[C@@H](C=O)NC1=O (stereo partly drawn) [Compound 16, (4S, 7S)-17-(3-Chlorophenyl)-4-methyl-2,5,10-trioxo-1-oxa-3,6,11-triazacycloheptadecane-7-carbaldehyde] | >100 µM |  |

From paper PMC5296247 (European journal of medicinal chemistry, 2016)
